Data published in PubChem BioAssay AID256 (DTP/NCI, 2004).
Where “and” joins values, the source holds several entries; their conditions need not be identical. Equal entries are not always repeated. Toxic doses and inconclusive results are not listed. The calls were made as follows: active = survival T/C of 150% or more; inactive = T/C below 125% in these data.

Test system: CD2F1 mice, L1210 leukemia ip, survival T/C
Experiment: NCI In Vivo Anticancer Drug Screen. Data for tumor model L1210 Leukemia (intraperitoneal) in CD2F1 (CDF1) mice
Settings: higher = longer survival
In short: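 Transplantable tumor in mice; compound-treated vs vehicle-treated groups. Read-out = treated/control ratio of the measured endpoint.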

[1] = endpoint: mean survival time, dose: 100.0 mg/kg/injection, schedule: Q04DX003 (ip), vehicle: saline with Tween-80
[2] = endpoint: mean survival time, dose: 200.0 mg/kg/injection, schedule: Q04DX003 (ip), vehicle: saline with Tween-80
[3] = endpoint: mean survival time, dose: 50.0 mg/kg/injection, schedule: Q01DX009 (ip), vehicle: saline with Tween-80
[4] = endpoint: mean survival time, dose: 100.0 mg/kg/injection, schedule: Q01DX009 (ip), vehicle: saline with Tween-80
[5] = endpoint: mean survival time, dose: 200.0 mg/kg/injection, schedule: Q01DX009 (ip), vehicle: saline with Tween-80
[6] = endpoint: mean survival time, dose: 75.0 mg/kg/injection, schedule: Q01DX001 (ip), vehicle: saline
[7] = endpoint: mean survival time, dose: 150.0 mg/kg/injection, schedule: Q01DX001 (ip), vehicle: saline

Measured: T/C

CC1(C)C2CC=C(CCN=[N+]=[N-])C1C2 (stereo not drawn)
inactive: endpoint: mean survival time, dose: 50.0 mg/kg/injection, schedule: Q01DX009 (ip), vehicle: saline sonified 97 % of control | endpoint: mean survival time, dose: 100.0 mg/kg/injection, schedule: Q01DX009 (ip), vehicle: saline sonified 97 % of control | [1] 105 % of control | endpoint: mean survival time, dose: 200.0 mg/kg/injection, schedule: Q01DX009 (ip), vehicle: saline sonified 95 % of control | [2] 97 % of control

COc1cc(Cl)ccc1NC(=O)Nc1cc(C)on1
inactive: [3] 100 % of control | [4] 95 % of control | [5] 95 % of control

Cn1c(N)n[nH]c1=S
inactive: [1] 93 % of control | [2] 108 % of control | endpoint: mean survival time, dose: 400.0 mg/kg/injection, schedule: Q04DX003 (ip), vehicle: saline with Tween-80 88 % of control

CC(C)(C[NH-])C[NH-].[Cl][Pt+2][Cl]
inactive: endpoint: median survival time, dose: 0.2 mg/kg/injection, schedule: Q04DX003 (ip), vehicle: water 118 % of control and 110 % of control and 111 % of control

CC(=O)CC(C)(C)N
inactive: [3] 94 % of control | [4] 97 % of control | [1] 97 % of control | [5] 92 % of control

CC(C)NCCO
inactive: [6] 98 % of control | endpoint: mean survival time, dose: 100.0 mg/kg/injection, schedule: Q01DX001 (ip), vehicle: saline 97 % of control | [7] 100 % of control | endpoint: mean survival time, dose: 200.0 mg/kg/injection, schedule: Q01DX001 (ip), vehicle: saline 97 % of control

NC(=O)C(O)(c1ccc(Br)cc1)C(Cl)Cl (stereo not drawn)
inactive: endpoint: mean survival time, dose: 28.5 mg/kg/injection, schedule: Q04DX002 (ip), vehicle: saline with Tween-80 97 % of control | endpoint: mean survival time, dose: 50.0 mg/kg/injection, schedule: Q04DX002 (ip), vehicle: saline with Tween-80 107 % of control | endpoint: mean survival time, dose: 57.0 mg/kg/injection, schedule: Q04DX002 (ip), vehicle: saline with Tween-80 95 % of control | endpoint: mean survival time, dose: 100.0 mg/kg/injection, schedule: Q04DX002 (ip), vehicle: saline with Tween-80 102 % of control | endpoint: mean survival time, dose: 114.0 mg/kg/injection, schedule: Q04DX002 (ip), vehicle: saline with Tween-80 98 % of control

CCO/C=C/C(=O)NC(=O)NC1CC(CO)CC1O (stereo not drawn)
inactive: [3] 97 % of control | [4] 97 % of control | [5] 105 % of control

C=C(C)C1CCC2(C(=O)OC)CCC3(C)C(CCC4C5(C)CCC(=O)C(C)(C)C5CCC43C)C12 (stereo not drawn)
inactive: endpoint: mean survival time, dose: 100.0 mg/kg/injection, schedule: Q01DX001 (ip), vehicle: Klucel (hydroxypropylcellulose) (HPC) 96 % of control | endpoint: mean survival time, dose: 200.0 mg/kg/injection, schedule: Q01DX001 (ip), vehicle: Klucel (hydroxypropylcellulose) (HPC) 91 % of control | endpoint: mean survival time, dose: 400.0 mg/kg/injection, schedule: Q01DX001 (ip), vehicle: Klucel (hydroxypropylcellulose) (HPC) 94 % of control

O=c1[nH]c2ccccc2o1
inactive: endpoint: mean survival time, dose: 12.5 mg/kg/injection, schedule: Q01DX009 (iv), vehicle: methylcellulose (MC) 95 % of control | endpoint: mean survival time, dose: 25.0 mg/kg/injection, schedule: Q01DX009 (iv), vehicle: methylcellulose (MC) 90 % of control | endpoint: mean survival time, dose: 50.0 mg/kg/injection, schedule: Q01DX009 (iv), vehicle: methylcellulose (MC) 94 % of control

CCCCCCCCCCOC(=O)COc1ccc(C(C)(C)C)cc1
inactive: endpoint: mean survival time, dose: 12.5 mg/kg/injection, schedule: Q01DX009 (ip), vehicle: saline with Tween-80 106 % of control | endpoint: mean survival time, dose: 25.0 mg/kg/injection, schedule: Q01DX009 (ip), vehicle: saline with Tween-80 97 % of control | [3] 97 % of control

O=C(C1CC=C2c3ccccc3CCC2C1C(=O)N1CCCCC1)N1CCCCC1 (stereo not drawn)
inactive: [6] 104 % of control | [7] 98 % of control | endpoint: mean survival time, dose: 300.0 mg/kg/injection, schedule: Q01DX001 (ip), vehicle: saline 107 % of control

Cc1ccccc1NC(=S)Nc1ccccn1
inactive: [4] 95 % of control | [5] 98 % of control | endpoint: mean survival time, dose: 400.0 mg/kg/injection, schedule: Q01DX009 (ip), vehicle: saline with Tween-80 93 % of control
